Source: ChEMBL document CHEMBL2390948, “Stapled peptide-based membrane fusion inhibitors of hepatitis C virus” (Bioorg Med Chem, 2013)
pEC50: −log10 of the molar value. Bridge positions count the residues as written; N and C are the ends. Square brackets hold non-standard residues; d marks the D form. Peptide text beside a SMILES is read from it. R8 = C=CCCCCCC[C@@](C)(N)C(=O)O; S8 = C=CCCCCCC[C@](C)(N)C(=O)O; R5 = C=CCCC[C@@](C)(N)C(=O)O; S5 = C=CCCC[C@](C)(N)C(=O)O

Experiments:
Hepacivirus hominis = experiment: Inhibition of HCV envelope glycoprotein E2 interaction to human cell surface protein CD81
[1] = Half life of the compound in presence of chymotrypsin at 20 uM by HPLC analysis; type: physicochemical
[2] = Inhibition of HCV JFH-1 envelope glycoprotein E2 interaction to cell surface protein CD81 in human Huh 7.5.1 cells after 2 days by firefly luciferase based luminescene assay; set-up: species or system Hepatitis C virus JFH-1
Hepatitis C virus [3] = experiment: Antiviral activity against HCV JFH-1 infected in human Huh 7.5.1 cells after 2 days by firefly luciferase reporter gene assay; type: functional, organism-based, Hepacivirus hominis; details: JFH-1, Huh-7.5.1, 48 h
Hepatitis C virus [4] = experiment: Inhibition of HCV 1b con1 envelope glycoprotein E2 interaction to cell surface protein CD81 in human Huh 7.5.1 cells after 2 days by firefly luciferase based luminescene assay; type: organism-based, Hepacivirus hominis; details: Con1, Huh-7.5.1, 48 h
[5] = Cytotoxicity against human Huh7.5.1 cells at 1000 ug/ml after 48 hrs by WST-1 assay; type: cell-based
Hepatitis C virus [6] = experiment: Antiviral activity against HCV at 50 uM; type: functional, Hepacivirus hominis

Row | INH (Hepacivirus hominis) | half-life at 20 µM [1] | pEC50 [2] | pEC50 (Hepatitis C virus [3]) | pEC50 (Hepatitis C virus [4]) | Compound | Activity [5] | inhibition at 50 µM (Hepatitis C virus [6])
1 | 38 µM | – | – | – | – | CCN(CCN(CC)C(=O)c1nc[nH]c1C(=O)N[C@@H](CC(C)C)C(=O)OCc1ccccc1)C(=O)c1nc[nH]c1C(=O)N[C@@H](CC(C)C)C(=O)OCc1ccccc1 | – | –
2 | 53 µM | – | – | – | – | CCN(CCN(CC)C(=O)c1nc[nH]c1C(=O)N[C@H](C(=O)OCc1ccccc1)C(C)C)C(=O)c1nc[nH]c1C(=O)N[C@H](C(=O)OCc1ccccc1)C(C)C | – | –
3 | – | > 3.33 h | 3.50 | 3.74 | 3.55 | CC[C@H](C)[C@H](NC(=O)[C@H](CC(N)=O)NC(=O)[C@H](CO)NC(=O)CNC(=O)[C@H](CO)NC(=O)[C@@H]1CCCN1C(C)=O)C(=O)N[C@H](C(=O)N[C@@]1(C)CCC/C=C\CCC[C@@](C)(C(=O)N[C@@H](CCC(=O)O)C(=O)N[C@@H](CC(=O)O)C(N)=O)NC(=O)[C@H](Cc2ccccc2)NC(=O)[C@H](CC(C)C)NC(=O)[C@H](CC(N)=O)NC1=O)[C@@H](C)CC (Ac-PSGSNII[S5]NLF[S5]ED-NH2; staple (Z) 8-12) | – | –
4 | – | > 3.33 h | 3.70 | 3.62 | 3.50 | CC[C@H](C)[C@@H]1NC(=O)[C@@](C)(NC(=O)[C@H](CC(N)=O)NC(=O)[C@H](CO)NC(=O)CNC(=O)[C@H](CO)NC(=O)[C@@H]2CCCN2C(C)=O)CCC/C=C\CCC[C@@](C)(C(=O)N[C@@H](Cc2ccccc2)C(=O)N[C@@H](CCCCN)C(=O)N[C@@H](CCC(=O)O)C(=O)N[C@@H](CC(=O)O)C(N)=O)NC(=O)[C@H](CC(N)=O)NC(=O)[C@H](CO)NC1=O (Ac-PSGSN[S5]ISN[S5]FKED-NH2; staple (Z) 6-10) | – | –
5 | – | > 3.33 h | 4.11 | 3.45 | 3.51 | CC[C@H](C)[C@@H]1NC(=O)[C@H]([C@@H](C)CC)NC(=O)[C@@](C)(NC(=O)[C@H](CO)NC(=O)CNC(=O)[C@H](CO)NC(=O)[C@@H]2CCCN2C(C)=O)CCCCCC/C=C/CCC[C@@](C)(C(=O)N[C@@H](CCC(=O)O)C(=O)N[C@@H](CC(=O)O)C(N)=O)NC(=O)[C@H](Cc2ccccc2)NC(=O)[C@H](CC(C)C)NC(=O)[C@H](CC(N)=O)NC(=O)[C@H](CO)NC1=O (Ac-PSGS[S8]IISNLF[S5]ED-NH2; staple (E) 5-12) | – | –
6 | – | > 3.33 h | 4.68 | 4.40 | 3.79 | CC[C@H](C)[C@@H]1NC(=O)[C@H](CC(N)=O)NC(=O)[C@@](C)(NC(=O)CNC(=O)[C@H](CO)NC(=O)[C@@H]2CCCN2C(C)=O)CCC/C=C\CCC[C@@](C)(C(=O)N[C@@H](CC(N)=O)C(=O)N[C@@H](CC(C)C)C(=O)N[C@@H](Cc2ccccc2)C(=O)N[C@@H](CCCCN)C(=O)N[C@@H](CCC(=O)O)C(=O)N[C@@H](CC(=O)O)C(N)=O)NC(=O)[C@H]([C@@H](C)CC)NC1=O (Ac-PSG[S5]NII[S5]NLFKED-NH2; staple (Z) 4-8) | – | –
7 | – | > 3.33 h | 4.77 | 4.41 | 4.46 | CC[C@H](C)[C@@H]1NC(=O)[C@H](CC(N)=O)NC(=O)[C@H](CO)NC(=O)[C@](C)(NC(=O)[C@H](CO)NC(=O)[C@@H]2CCCN2C(C)=O)CCCCCC/C=C\CCC[C@](C)(C(=O)N[C@@H](Cc2ccccc2)C(=O)N[C@@H](CCCCN)C(=O)N[C@@H](CCC(=O)O)C(=O)N[C@@H](CC(=O)O)C(N)=O)NC(=O)[C@H](CC(N)=O)NC(=O)[C@H](CO)NC(=O)[C@H]([C@@H](C)CC)NC1=O (Ac-PS[R8]SNIISN[R5]FKED-NH2; staple (Z) 3-10) | Non-toxic | –
8 | – | – | – | – | – | O=C(OCc1ccccc1)c1ccccc1O [BENZYL SALICYLATE] | – | 25%
9 | – | 0.167 h | 3.49 | 3.61 | 3.49 | Ac-PSGSNIISNLFKED-NH2 | Non-toxic | –
